Assay results: ChEMBL document CHEMBL1158439, “Non-isotopic dual parameter competition assay suitable for high-throughput screening of histone deacetylases” (Bioorg Med Chem Lett, 2009)

Experiments:
[1] = target: T1, Histone deacetylase-like amidohydrolase (Alcaligenes sp. (strain DSM 11172) (Bordetella sp. (strain FB188)), UniProt Q70I53); assay: Displacement of Atto700-HA from Bordetella / Alcaligenes strain FB188 HDAH by fluorescence anisotropy; parameters: species or system Alcaligenaceae bacterium FB188
T1 sequence (Q70I53 whole entry): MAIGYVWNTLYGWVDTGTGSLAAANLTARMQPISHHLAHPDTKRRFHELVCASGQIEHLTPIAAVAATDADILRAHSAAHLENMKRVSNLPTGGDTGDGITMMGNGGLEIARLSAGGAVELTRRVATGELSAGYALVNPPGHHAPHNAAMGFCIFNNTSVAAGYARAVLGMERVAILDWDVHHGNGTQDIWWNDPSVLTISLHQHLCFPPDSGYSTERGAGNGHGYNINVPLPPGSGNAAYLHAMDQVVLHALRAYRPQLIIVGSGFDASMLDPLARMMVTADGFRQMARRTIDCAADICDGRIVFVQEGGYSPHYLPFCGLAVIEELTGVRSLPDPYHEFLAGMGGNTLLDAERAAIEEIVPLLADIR

[2] = Displacement of Atto700-HA from Bordetella / Alcaligenes strain FB188 […] by fluorescence anisotropy; parameters: species or system Alcaligenaceae bacterium FB188
[3] = target: T1, Histone deacetylase-like amidohydrolase (Alcaligenes sp. (strain DSM 11172) (Bordetella sp. (strain FB188)), UniProt Q70I53); assay: Binding affinity to Bordetella / Alcaligenes strain FB188 HDAC by FRET assay; parameters: species or system Alcaligenaceae bacterium FB188
[4] = target: T1, Histone deacetylase-like amidohydrolase (Alcaligenes sp. (strain DSM 11172) (Bordetella sp. (strain FB188)), UniProt Q70I53); assay: Inhibition of Bordetella / Alcaligenes strain FB188 HDAH by fluorogenic enzyme assay; parameters: species or system Alcaligenaceae bacterium FB188
[5] = Inhibition of HDAC from RT extract
[6] = Inhibition of Bordetella / Alcaligenes strain FB188 HDAC6 by fluorescence polarization assay; parameters: species or system Alcaligenaceae bacterium FB188
[7] = Inhibition of Bordetella / Alcaligenes strain FB188 HDAC6 by fluorogenic enzyme assay
[8] = target: T1, Histone deacetylase-like amidohydrolase (Alcaligenes sp. (strain DSM 11172) (Bordetella sp. (strain FB188)), UniProt Q70I53); assay: Inhibition of Bordetella / Alcaligenes strain FB188 HDAH by fluorimetric assay; parameters: species or system Alcaligenaceae bacterium FB188

Row | SMILES | Ki [1] [µM] | IC50 [2] [µM] | Ki [3] [µM] | IC50 [4] [µM] | IC50 [5] [µM] | IC50 [6] [µM] | IC50 [7] [µM] | IC50 [8] [µM]
1 | CCCCCC1OC1CC#CCCCCCCCC(=O)O (configuration not stated) | 20 | > 20 | 4.3 | 9.2 | – | – | – | –
2 | O=C(CCCCCc1nc2cc3ccccc3cc2[nH]1)C(F)(F)F | 1.4 | 0.07 | – | 0.6 | 0.6 | – | – | –
3 | CCCCCCCCCCCC[C@@H](C)O[C@@H]1O[C@H](CO)[C@@H](O)[C@H](O)[C@H]1O[C@@H]1O[C@H](COC(C)=O)[C@@H](O)[C@H](O)[C@H]1O | 10 | > 50 | 2 | 6.2 | > 50 | – | – | –
4 | CCC1=C(OC)C(=O)C(CCCCCCCCCCC(C)=O)=C(C)C1=O | 1.1 | > 50 | – | 0.6 | > 50 | – | – | –
5 | CCC(=O)CCCCC[C@@H]1NC(=O)[C@H]2CCCCN2C(=O)[C@H]([C@@H](C)CC)NC(=O)[C@H](Cc2cn(OC)c3ccccc23)NC1=O [APICIDIN] | 9.2 | – | – | – | – | 0.67 | – | –
6 | Nc1ccccc1NC(=O)c1ccc(CNC(=O)OCc2cccnc2)cc1 [ENTINOSTAT] | > 100 | – | – | 118 | 8.8 | – | > 10 | –
7 | CC(/C=C/C(=O)NO)=C\[C@@H](C)C(=O)c1ccc(N(C)C)cc1 [TRICHOSTATIN] | 0.7 | – | – | – | 0.001 | 0.017 | – | 1.2
